Data from patent US20240262845A1, “PYRIDINIUM SALTS, METHODS OF MAKING, AND METHODS OF USE” (UNIVERSITY OF WYOMING, priority 2023, published 2024).
Structures can show the parent of a compound that is named as a salt.

What was measured:
[1] = target: T1, bovine carbonic anhydrase II (Bos taurus, UniProt P00921); assay: Photochemical labeling of bovine carbonic anhydrase II with pyridinium salt (General Procedure B, LC/MS); format: biochemical; settings: trypsin digest
T1 construct: Carbonic Anhydrase Isozyme II from bovine erythrocytes; purchased Sigma Aldrich; host or cells: bovine erythrocytes
T1 sequence (P00921 whole entry): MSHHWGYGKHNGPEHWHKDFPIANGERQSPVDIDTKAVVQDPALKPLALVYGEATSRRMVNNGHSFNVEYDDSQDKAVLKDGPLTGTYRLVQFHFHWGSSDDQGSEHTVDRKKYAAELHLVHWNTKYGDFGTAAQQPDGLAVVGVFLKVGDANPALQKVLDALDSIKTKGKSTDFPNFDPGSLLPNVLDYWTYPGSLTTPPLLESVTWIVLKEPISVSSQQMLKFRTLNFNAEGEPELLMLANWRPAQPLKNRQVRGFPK
Description: (§1) General Procedure B: Photochemical Irradiation of Peptides and Proteins: To a 2 mL Pyrex LC/MS vial (Thermo model #03-391-39) were sequentially added solutions containing the desired biomolecule, glutathione (GSH), pyridinium salt, and ammonium acetate (NH4OAc). The resulting solution was diluted to a final volume of 500 μL and then sparged using nitrogen for a minimum of 30 minutes prior to irradiation. The actively sparging solution was then placed in an EvoluChem™ PhotoRedOx Box photoreactor that was equipped with a Kessil, PR160 427 nm LED Lamp and was then irradiated (100% lamp intensity) for the designated time at room temperature while maintaining active sparging. The resultant reaction mixture was then analyzed directly by LC/MS. […]
Labeling of Bovine Carbonic Anhydrase II with Pyridinium Salt 2a (Bovine Carbonic Anhydrase II-2a Conjugate). […] The reaction mixture was directly analyzed by LC/MS using method A and was estimated to have proceeded with 34% conversion and a 4.5:1 mono:di labeled ratio. […]
General Trypsin Digest Protocol B: For non-cystine bridged labeled proteins, a standard trypsin digest was modified as follows. […] The digested mixture was analyzed directly by LC/MS and MS/MS using method C. […]

[2] = target: T2, β2-Microglobulin (Homo sapiens, UniProt P61769); assay: Photochemical labeling of β2-microglobulin with pyridinium salt (General Procedure B, LC/MS); format: biochemical; settings: trypsin digest
T2 construct: β2-microglobulin (Human Urine ≥98% (SDS-PAGE)); purchased Lee Biosolutions; host or cells: human urine
T2 sequence (P61769 21-119): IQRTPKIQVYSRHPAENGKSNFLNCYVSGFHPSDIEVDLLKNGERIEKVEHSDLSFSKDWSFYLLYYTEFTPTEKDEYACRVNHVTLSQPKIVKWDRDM
Description: as §1, with “LC/MS. Analysis of labeling outcomes using LC/MS was performed either by extracted ion chromatogram intensities (method A) or by integrating the area under the peaks associated with peptide content (method B).” for “LC/MS.”
Labeling of β2-Microglobulin with Pyridinium Salt 2a (β2-Microglobulin-2a Conjugate). […] The reaction mixture was directly analyzed by LC/MS using method A and was estimated to have proceeded with 88% conversion with a >20:1 mono:di labeled ratio and 7% glutathionylation of all unlabeled and labeled protein content. β2-Microglobulin-2a conjugate (retention time (Tr)=3.26-4.70 min). […]

COC(=O)N(C)[n+]1c(C)cc(-c2ccc3cc(OC)ccc3c2)cc1C [pyridinium salt 2a, 1-((methoxycarbonyl)(methyl)amino)-4-(6-methoxynapthalen-2-yl)-2,6-dimethylpyridin-1-ium tetrafluoroborate]
Modified Trp [1]: Trp-243 | Modified Trp [2]: Trp-60
